Earlier results as cited in US11000475B2, “Ophthalmic solution of difluprednate” (Sun Pharma Advanced Research Company Limited, priority 2015, dated 2021).

CCCC(=O)O[C@]1(C(=O)COC(C)=O)CCC2[C@@H]3CC(F)C4=CC(=O)C=C[C@]4(C)C3(F)[C@@H](O)C[C@@]21C (stereo partly shown) [Difluprednate]
solubility in aqueous vehicle: practically insoluble
